Results as given in US11324799B2, “Gap junction intercellular communication modulators and their use for the treatment of diabetic eye disease” (ZEALAND PHARMA A/S, priority 2017, dated 2022).

Tests used:
[1] = system: Rat retinal endothelial cells (RRECs); experiment: Scrape load dye transfer (SLDT) assay of GJIC; format: cell-based; conditions: HG (30 mM) medium, 100 nM, 3, 5 and 7 days
Description: (§1) Rat retinal endothelial cells (RRECs) were grown for 3, 5, and 7 days in normal (N; 5 mM) or HG (30 mM) medium; in parallel, cells grown in HG medium were exposed for 3, 5, and 7 days to 100 nM Danegaptide (DG), an AAP10 analogue, which stabilizes Cx43 mediated cell coupling. In addition, cells grown in N medium were treated with a Cx43 blocker (negative control) which inhibits GJ coupling, or a positive control AAP10, protecting GJIC. To determine GJIC, scrape load dye transfer (SLDT) assay was performed at the three time points. Similarly, cells were assessed for apoptosis and cell monolayer permeability by differential dye staining assay and in vitro permeability assay, respectively.

[2] = system: Rat retinal endothelial cells (RRECs); experiment: Apoptosis by differential dye staining assay; format: cell-based; conditions: HG (30 mM) medium, 100 nM, 3, 5 and 7 days
Description: as §1

[3] = system: Rat retinal endothelial cells (RRECs); experiment: In vitro cell monolayer permeability assay; format: cell-based; conditions: HG (30 mM) medium, 100 nM
Description: as §1

[4] = system: streptozotocin (STZ)-induced diabetic rats; experiment: Pilot study, 6 weeks of diabetes: AC and PL in retinal trypsin digests after intravitreal injection; format: in vivo, rat; conditions: n=3
Description: All animal studies were performed according to the ARVO Statement for the Use of Animals in Ophthalmic and Vision Research. In the pilot study to determine the optimal concentration of danegaptide, twelve Sprague-Dawley male rats, each weighing 200 g, were used. Nine of the twelve rats were injected intraperitoneally with streptozotocin (STZ) (55 mg/kg body weight) to induce diabetes for 6 weeks. The remaining 3 animals served as non-diabetic controls. After 6 weeks of diabetes, the animals were killed and retinas were isolated. In the follow-up study to determine the effect of 1000 nM danegaptide on the number of AC and PL, thirty-six Sprague-Dawley male rats, each weighing 200 g, were used. Thirty of the thirty-six rats were injected with STZ to induce diabetes for 15 weeks. The remaining six animals served as non-diabetic controls. […] Blood glucose levels were measured in each animal 2-3 times weekly and at the time of death. […]
RTDs were stained with periodic acid-Schiff and hematoxylin as described in Bobbie et al. (Reduced connexin 43 expression and its effect on the development of vascular lesions in retinas of diabetic mice. Investigative ophthalmology & visual science 2010; 51:3758-3763). Ten representative fields were imaged using a digital camera attached to a microscope and the images were analyzed for AC and PL. […]

[5] = system: streptozotocin (STZ)-induced diabetic rats; experiment: Follow-up study, 15 weeks of diabetes: AC and PL in retinal trypsin digests, intravitreal or osmotic pump delivery; format: in vivo, rat; conditions: for number of PL / development of AC: diabetic rats, 15 weeks; for number of AC (FIG. 2) / number of PL (FIG. 2): diabetic rat retinas
Description: All animal studies were performed according to the ARVO Statement for the Use of Animals in Ophthalmic and Vision Research. In the pilot study to determine the optimal concentration of danegaptide, twelve Sprague-Dawley male rats, each weighing 200 g, were used. Nine of the twelve rats were injected intraperitoneally with streptozotocin (STZ) (55 mg/kg body weight) to induce diabetes for 6 weeks. The remaining 3 animals served as non-diabetic controls. After 6 weeks of diabetes, the animals were killed and retinas were isolated. In the follow-up study to determine the effect of 1000 nM danegaptide on the number of AC and PL, thirty-six Sprague-Dawley male rats, each weighing 200 g, were used. Thirty of the thirty-six rats were injected with STZ to induce diabetes for 15 weeks. The remaining six animals served as non-diabetic controls. After 15 weeks of diabetes, the animals were killed and retinas were isolated. The glucose concentration in blood and urine were checked after 2 or 3 days after STZ injection to confirm diabetes status in the animals. Blood glucose levels were measured in each animal 2-3 times weekly and at the time of death. The diabetic group represented rats with blood glucose levels of >350 mg/dL. The diabetic rats received NPH insulin injection as needed to maintain blood glucose levels.
The enucleated eyes were placed in 10% formalin for at least 24 hrs. The eyes were then cut in half with a razor blade, and the retinas were isolated and placed into 0.5M glycine for 24-48 hrs. RTD was performed as described in Kuwabara & Cogan (Studies of retinal vascular patterns. I. Normal architecture. Archives of ophthalmology 1960; 64:904-911). Each retina went through a series of washes with 3% trypsin, and the non-vascular mass of the retina was removed. The retinal capillary network was then isolated and mounted onto a silane-coated slide.
RTDs were stained with periodic acid-Schiff and hematoxylin as described in Bobbie et al. (Reduced connexin 43 expression and its effect on the development of vascular lesions in retinas of diabetic mice. Investigative ophthalmology & visual science 2010; 51:3758-3763). Ten representative fields were imaged using a digital camera attached to a microscope and the images were analyzed for AC and PL. Apoptotic pericytes were identified as PL based on prominent histological characteristics, including basement membrane protrusion as empty shell. Capillaries devoid of both pericytes and endothelial cells were considered as AC.
To determine the optimal concentration of danegaptide (DG), a Cx43 gap junction coupler, two concentrations (200 nM or 1000 nM) were tested via intravitreal injections in streptozotocin (STZ)-induced diabetic rats. Diabetes was induced via STZ for 6 weeks and at the end of the study, eyes were enucleated, and retinas subjected to retinal trypsin digestion (RTD) for isolation of capillary networks and stained with Hematoxylin and Periodic Acid Schiff's (PAS) reagent to analyze the number of acellular capillaries (AC) and pericyte loss (PL). Based on this pilot study, 1000 nM danegaptide was injected intravitreally in the follow-up study to determine the effect of improved cell coupling on retinal vascular cell death. Additionally, danegaptide was administered systemically using osmotic pumps. The number of rats used in this study was at least 6 per group. Overall, rats were divided into 6 groups: wild type (WT) control rats, STZ-induced diabetic rats, diabetic rats intravitreally injected with danegaptide, diabetic rats intravitreally injected with water, diabetic rats systemically delivered with danegaptide, and diabetic rats systemically delivered with water. Diabetes was induced via STZ for 15 weeks and at the end of the study, retinas were isolated and subjected to RTD for analyses of AC and PL. […]

[6] = system: diabetic rats; experiment: In vivo permeability (IVP): extravasation of FITC-dextran in retinal capillaries; set-up: species or system rat; conditions: for vascular leakage (FIG. 3): diabetic rat retinas; for vascular leakage: 15 weeks
Description: To determine if improvement in Cx43-mediated gap junction intercellular communication (GJIC) prevents retinal vascular cell death and excess retinal vascular permeability, danegaptide was administered intravitreally or via osmotic pumps in rats. 60 male Sprague Dawley rats were randomly assigned into six groups, each consisting of 10 rats: non-diabetic rats, diabetic rats, diabetic rats intravitreally injected with DG (1000 nM concentration), diabetic rats intravitreally injected with sterile water as vehicle, diabetic rats treated systemically with DG (70 mg/mL to achieve 100 nM plasma DG concentration) via osmotic pumps, and diabetic rats treated systemically via osmotic pump with sterile water as control. Diabetes was induced for 15 weeks and at the end of the study all animals were examined and subsequently sacrificed and their retinas were examined for (i) in vivo permeability (IVP), (ii) RTD, and (iii) optical coherence tomography (OCT) for analyses of vascular leakage, AC and PL, and retinal thickness, respectively.
To determine the effect of improved cell-cell coupling on retinal vascular permeability under hyperglycemic stress, extravasation of FITC-dextran was assessed in the retinal capillaries following FITC-dextran tail vein injection performed shortly before animals were sacrificed.

[7] = system: Primary retinal endothelial cells from rats; experiment: Transcriptomic effects in an in vitro diabetic retinopathy model; format: cell-based, rat; conditions: HG medium
Description: The transcriptomic effects of danegaptide in an in vitro diabetic retinopathy model were investigated to 1) reveal transcriptomic changes in diabetic-like conditions with or without danegaptide and 2) associate functional effects previously observed to transcriptomic modifications and 3) identify pathways involved in danegaptide effects on relevant cells under diabetes-like conditions. Primary retinal endothelial cells from rats were plated for in vitro experiments under four experiments conditions, Normal Glucose medium (NG), High Glucose medium (HG), High Glucose medium+Danegaptide 100 nM (HG_DG100) and High Glucose medium+Danegaptide 1000 nM (HG_DG1000). The samples were assessed at four time points (4 hours after plating, 1 day after plating, 3 days after plating and 5 days after plating).

[8] = intravitreal (IV) injection vs IV injection of water
[9] = osmotic pumps (OP) vs water via OP

## NCC(=O)N1C[C@H](NC(=O)c2ccccc2)C[C@H]1C(=O)O [danegaptide, (2S,4R)-1-(2-aminoacetyl)-4-benzoylamino-pyrrolidine-2-carboxylic acid]
[1]
  GJIC (SLDT assay): preserved GJIC
[2]
  HG-induced apoptosis: rescued cells from HG-induced apoptosis at all three time points
[3]
  cell monolayer permeability: significantly decreased by day 5
[4]; intravitreal injection 1000 nM, vs untreated diabetic rat retinas
  number of PL (pericyte loss): significantly reduced
[4]; intravitreal injection 200 or 1000 nM
  number of AC (acellular capillaries): decreased in the danegaptide treated groups but fell short of statistical significance
[5]; intravitreal 1000 nM
  number of PL: 112±62 % of control
[5]; [8]
  number of AC (FIG. 2): significantly reduced
  number of PL (FIG. 2): significantly reduced
[5]; intravitreal injections 1000 nM
  development of AC: 134±28 % of control
[5]; [9]
  number of AC (FIG. 2): significantly reduced
  number of PL (FIG. 2): significantly reduced
[5]; systemic (osmotic pump)
  development of AC: 133±37 % of control
  number of PL: 103±65 % of control
[6]; IV injection vs IV injection of water
  vascular leakage (FIG. 3): significantly reduced
[6]; diabetic rats
  difference in vascular leakage between intravitreal and systemic treatment: no significant difference
[6]; intravitreal DG 1000 nM, diabetic rats
  vascular leakage: 149±22 % of control
[6]; [9]
  vascular leakage (FIG. 3): significantly reduced
[6]; systemic DG via osmotic pump (100 nM plasma target), diabetic rats
  vascular leakage: 143±14 % of control
[7]
  Fscn3 expression (downregulated in HG versus NG): reverse by danegaptide
[7]; 100 or 1000 nM, 4 h and 1 d
  expression of genes differentially expressed in high glucose vs normal glucose: reverses expression of some genes
[7]; 4 h
  Tpcn2 expression (downregulated in HG versus NG): reversed by danegaptide
[7]; 1 d
  Cacybp expression (downregulated in HG versus NG): reversed by danegaptide
[7]; day 1
  expression of transcripts Dnm1I, Nucb2, Trmt10a (down-regulated under HG): generally increased the expression
